The term IC50 denotes the point on the concentration scale where inhibition reaches its midpoint.

We go through four compounds from publication PMC11078216, “Discovery of potent and selective activity-based probes (ABPs) for the deubiquitinating enzyme USP30” (RSC Chemical Biology, 2024).

One test concerns the target T1, UCHL1 (Homo sapiens, UniProt P09936).
T1 sequence (P09936 1-223): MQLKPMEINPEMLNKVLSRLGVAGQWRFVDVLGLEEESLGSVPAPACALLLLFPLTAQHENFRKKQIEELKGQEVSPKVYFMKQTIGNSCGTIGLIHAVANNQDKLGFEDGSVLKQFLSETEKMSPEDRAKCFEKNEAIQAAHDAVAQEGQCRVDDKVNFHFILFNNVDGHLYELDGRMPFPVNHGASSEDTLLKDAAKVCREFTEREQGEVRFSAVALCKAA
The test can be described thus: In-cell target engagement using HA-Ub-VME competition, immunoblot. Type of test: cell-based. Further details: endogenous in cells; host or cells: HEK293T. The note with it: HEK293T cells, 1 hour, in-lysate HA-Ub-VME competition, western blot. As for the experimental part: We next determined cellular engagement of endogenous USP30 with IMP-2587 or IMP-2586. […] In-cell concentration-dependent competition by IMP-2587 and IMP-2586 for USP30 were confirmed below 100 nM probe (Fig. 2b and c), whilst engagement of an exemplar unrelated DUB, UCHL1, occurred only at a much higher concentration (30 000 nM). We hypothesise that incomplete modification of USP30 by HA-Ub-VME is likely due to limited retention of USP30 activity in cell lysates, which have likely had the USP30 transmembrane domain compromised, highlighting the potential utility of a small molecule USP30 ABP applicable directly in intact cells. Direct USP30 target engagement by IMP-2587 and IMP-2586 was confirmed in HEK293T cells following 1 h probe treatment followed by cell lysis and CuAAC bio-orthogonal ligation to capture reagent azido-TAMRA-biotin (AzTB) for IMP-2587 or alkyne-TAMRA-biotin for IMP-2586 (Fig. 3a).[27] […] This unspecific background labelling is presumably due to the previously reported higher off-target CuAAC reactivity of an alkyne-bearing capture reagent, applied here due to incorporation of an azide tag in IMP-2586.[28] Moreover, the labelling of USP30 was further confirmed by biotin pulldown and immunoblotting.
2) USP30 in-cell engagement analysis […]
Protein concentration was determined by DC Protein assay (Bio-RAD). […]
For orientation: In western blotting, separated proteins are transferred to a membrane and probed.

The subject of the next test is USP30. The note with it: following 30 minutes incubation; read-out: reported IC50 against USP30; cited from earlier work.

In the case of `N#CN1CC[C@@H](NC(=O)c2cc(-c3ccccc3Oc3ccc(N=[N+]=[N-])cc3)n[nH]2)C1` [IMP-2586], the “concentration at which UCHL1 engagement occurred” value at UCHL1 is 30 000 nM.
Still for that read-out and setting: to `C#Cc1cccc(-c2cc(NC(=O)CC3CCN(C#N)C3)on2)c1` (stereo not shown) [IMP-2587] belongs 30 000 nM.
`N#CN1CC[C@H](CC(=O)Nc2cc(-c3cccc(Cl)c3)no2)C1` [compound 1, reference compound]: in the test with USP30, the IC50 was 1 to 10 nM.
Take `N#CN1CC[C@@H](NC(=O)c2cc(-c3ccccc3Oc3ccccc3)n[nH]2)C1` [compound 3, reference compound]: the IC50 in the test with USP30 was 1.5 nM.
